{"source": "patent US11517540B2", "about": "“Restoring physiology in iron-deficient organisms using small molecules” (The Board of Trustees of the University of Illinois, priority 2015, dated 2022)", "key": {"[1]": {"assay": "Iron binding (UV trace after addition of iron)", "format": "physicochemical", "from_the_text": "(§1) FIG. 5 illustrates the biophysical characterization of hinokitiol."}, "[2]": {"assay": "Release of iron from POPC liposomes", "from_the_text": "as §1"}, "[3]": {"system": "DMT1-deficient Caco-2 epithelia monolayers", "assay": "55Fe uptake and transepithelial transport in DMT1-deficient Caco-2 monolayers", "settings": "for 55Fe uptake into cells / transepithelial 55Fe transport: shDMT1 monolayers, apical addition", "from_the_text": "(§2) In normal epithelia, iron brought into the cell via apical DMT1 transporters is stored in cytosolic ferritin clusters and directionally exported through the basolateral membrane by FPN1. Transepithelial iron flux via this network of proteins is regulated by the iron response element which is sensitive to intracellular iron concentrations."}, "[4]": {"system": "Reticulocytes isolated ex vivo from DMT1-deficient Belgrade (b/b) rats", "assay": "59Fe incorporation into heme in reticulocytes isolated ex vivo", "settings": "for 59Fe incorporation into heme: plasma spiked with 59Fe-transferrin, b/b reticulocytes", "description": "The capacity for hinokitiol to restore hemoglobinization in DMT1-deficient erythroid progenitors was evaluated. Reticulocytes isolated ex vivo from DMT1-deficient Belgrade (b/b) and healthy (+/b) rats were incubated in plasma spiked with ^59Fe-transferrin to assess hinokitiol's ability to promote iron utilization.\nThe use of these MEL cells allowed us to test the hypothesis that hinokitiol autonomously transports iron down pre-existing concentration gradients. To do this, we utilized live cell fluorescence imaging with iron-specific dyes to visualize intracellular iron distribution."}, "[5]": {"system": "DMT1-deficient MEL cells", "assay": "Differentiation / hemoglobinization of DMT1-deficient MEL cells (o-dianisidine staining)", "settings": "for differentiation (staining of hemoglobinized cells with o-dianisidine): 2% DMSO induction", "from_the_text": "To gain a better fundamental understanding of this phenomenon, DS19 murine erythroleukemia (MEL) cells were used. These terminally differentiate toward developing erythrocytes after induction with 2% DMSO leading to increased iron uptake and globin expression. DMT1-deficient cell lines through shRNA knockdown were developed (FIG. 7, panel (B))."}, "[6]": {"system": "DMT1-deficient Belgrade (b/b) rats", "assay": "Chronic exposure of Belgrade (b/b) rats in rat chow: hematocrit", "format": "in vivo", "settings": "for hematocrit after one month of treatment: 0.2% in rat chow (˜100 mg/kg/day)", "from_the_text": "(§3) Belgrade (b/b) rats (FIG. 3, panel (A)) are the leading model of the disease and display severe hematological defects such as decreased hematocrit values amongst other markers."}, "[7]": {"system": "Mitoferrin-deficient MEL cell lines", "assay": "Hemoglobinization and 55Fe use in mitoferrin-deficient MEL cells", "format": "cell-based, murine", "settings": "for hemoglobinization: conditions identical to DMT1-deficient cells"}, "[8]": {"system": "hino-rescued yeast", "assay": "Sensitivity of hinokitiol-rescued yeast to chemical inhibitors", "format": "cell-based, S. cerevisiae", "settings": "ebselen: Pma1; bafilomycin: V-ATPase; caspofungin: off-pathway cell wall biosynthesis"}, "[9]": {"from_the_text": "as §1"}, "[10]": {"system": "S. cerevisiae missing the iron transporting complex Fet3Ftr1 (fet3Δftr1Δ)", "assay": "Modified functional complementation: growth rescue of iron transporter-deficient yeast", "format": "cell-based", "description": "To identify small molecules which perform such transport, a modified functional complementation experiment was performed. […] Growth restoration is not due to generic hormetic effects (FIG. 4, panel (D)) and can be sustained >40 days with continued reliance on hinokitiol (FIG. 4, panel (E))."}, "[11]": {"system": "FPN1", "assay": "55Fe uptake and transepithelial transport in control Caco-2 monolayers with FPN1 down-regulated by quercetin", "format": "cell-based, human", "from_the_text": "as §2"}, "[12]": {"system": "DMT1-deficient MEL cells", "assay": "Live cell fluorescence imaging of intracellular iron distribution with iron-specific dyes", "format": "cell-based, murine"}, "[13]": {"assay": "Toxicity and pharmacokinetic half-life in healthy rats", "from_the_text": "as §3"}, "[14]": {"assay": "Permeability assays", "format": "in vitro ADME", "settings": "not told", "from_the_text": "This was sustained for >2 months."}, "[15]": {"system": "TMEM14CΔ", "assay": "Hemoglobinization in heme biosynthesis-deficient (TMEM14CΔ) cells", "format": "cell-based"}, "[16]": {"system": "J774 macrophages", "format": "cell-based", "description": "To test the capacity for hinokitiol to restore iron release in FPN1 deficiencies, J774 macrophages were utilized. J774 cells with ^55Fe-transferrin were incubated in the absence or presence of hepcidin. Hepcidin is a key iron regulator, down-regulating FPN1 by promoting its degradation."}, "[17]": {"settings": "0.2% of feed, 13 weeks orally; cited from earlier work"}, "[18]": {"settings": "control monolayers treated with quercetin"}}, "note": "“Also recorded” adds a separate entry of the source. Where no end group is shown, it is not given here."}
{"compound": "CC(C)c1cccc(=O)cc1", "note": "[C2deOHino, C2-deoxy hinokitiol]", "values": [{"measurement": "iron binding", "setting": "[1]", "value": "ablated iron binding and transport; also recorded: does not bind or transport iron; also recorded: does not"}, {"measurement": "iron transport (release of iron from POPC liposomes)", "setting": "[2]", "value": "ablated iron binding and transport; also recorded: does not bind or transport iron; also recorded: do not"}, {"measurement": "55Fe uptake into cells", "setting": "[3]; hinokitiol 500 nM", "value": "unable to promote uptake or transport"}, {"measurement": "transepithelial 55Fe transport", "setting": "[3]; hinokitiol 500 nM", "value": "unable to promote uptake or transport"}, {"measurement": "59Fe incorporation into heme", "setting": "[4]", "value": "no apparent effect"}, {"measurement": "differentiation (staining of hemoglobinized cells with o-dianisidine)", "setting": "[5]; shDMT1 MEL cells, 72 hours", "value": "unable to restore physiology in any case"}, {"measurement": "hematocrit after one month of treatment", "setting": "[6]", "value": "low hematocrits normally observed for untreated b/b rats"}, {"measurement": "55Fe incorporation into heme", "setting": "[7]", "value": "did not produce these effects"}, {"measurement": "55Fe uptake", "setting": "[7]", "value": "did not produce these effects"}, {"measurement": "hemoglobinization", "setting": "[7]", "value": "did not produce these effects"}]}
{"compound": "CO/C1=C\\C(C)=C\\[C@@H](C)[C@@H](O)[C@@H](C)C/C(C)=C/C=C/[C@H](OC)[C@@H]([C@@H](C)[C@@H](O)[C@H](C)[C@@]2(O)C[C@@H](O)[C@H](C)[C@@H](C(C)C)O2)OC1=O", "note": "[bafilomycin]", "values": [{"measurement": "sensitivity of hino-rescued yeast to chemical inhibition", "setting": "[8]", "value": "exceptionally sensitive"}]}
{"compound": "CC[C@H](C)C[C@H](C)CCCCCCCCC(=O)N[C@H]1C[C@@H](O)[C@@H](NCCN)NC(=O)[C@@H]2[C@@H](O)CCN2C(=O)[C@H]([C@H](O)CCN)NC(=O)[C@H]([C@H](O)[C@@H](O)c2ccc(O)cc2)NC(=O)[C@@H]2C[C@@H](O)CN2C(=O)[C@H]([C@@H](C)O)NC1=O", "note": "[caspofungin]", "values": [{"measurement": "sensitivity of hino-rescued yeast to chemical inhibition", "setting": "[8]", "value": "equi-sensitive"}]}
{"compound": "Cc1c(O)c(=O)ccn1C", "note": "[deferiprone, reference compound]", "values": [{"measurement": "solubility in hexanes / partitioning into water", "setting": "[9]", "value": "partition primarily into water"}, {"measurement": "55Fe uptake into cells", "setting": "[3]; hinokitiol 500 nM", "value": "unable to promote uptake or transport"}, {"measurement": "transepithelial 55Fe transport", "setting": "[3]; hinokitiol 500 nM", "value": "unable to promote uptake or transport"}]}
{"compound": "CC(C)c1cccc(=O)c(O)c1", "note": "[hinokitiol, 2-hydroxy-6-propan-2-ylcyclohepta-2,4,6-trien-1-one]", "values": [{"measurement": "time over which growth restoration can be sustained", "setting": "[10]; continued reliance on hinokitiol", "value": "> 40", "unit": "days"}, {"measurement": "restoration of cell growth", "setting": "[10]; fet3Δftr1Δ yeast", "value": "restored cell growth"}, {"measurement": "growth level relative to wild type", "setting": "[10]; hinokitiol-treated fet3Δftr1Δ yeast, liquid media", "value": "grow to wild type levels"}, {"measurement": "influx of 55Fe into cells", "setting": "[10]; yeast", "value": "restoration of influx of ^55Fe into cells"}, {"measurement": "iron binding", "setting": "[1]", "value": "confirmed; also recorded: binds iron"}, {"measurement": "iron transport (release of iron from POPC liposomes)", "setting": "[2]", "value": "confirmed; also recorded: promotes the release of iron from POPC liposomes"}, {"measurement": "DMT1 expression after hinokitiol", "setting": "[3]", "value": "independent of DMT1 expression; also recorded: does not induce expression of DMT1"}, {"measurement": "55Fe uptake as function of hinokitiol dosage", "setting": "[3]; DMT1-deficient monolayers", "value": "proportional to the hinokitiol dosage"}, {"measurement": "transepithelial 55Fe transport at high hinokitiol concentrations", "setting": "[3]; DMT1-deficient monolayers", "value": "reduced when a high intracellular iron concentration is reached"}, {"measurement": "basolateral to apical iron transport", "setting": "[3]; basolateral addition of 55Fe and hinokitiol", "value": "failed to promote transport of iron from the basolateral to the apical side"}, {"measurement": "monolayer integrity", "setting": "[3]; hinokitiol 500 nM", "value": "without disrupting monolayer integrity"}, {"measurement": "55Fe incorporation into ferritin", "setting": "[3]; immunoprecipitation of ferritin after apical 55Fe, DMT1-deficient monolayers", "value": "restored high incorporation of ^55Fe into ferritin"}, {"measurement": "uptake and transport at range of pH", "setting": "[3]; pHs observed throughout the duodenum", "value": "maintained at a range of pHs observed throughout the duodenum"}, {"measurement": "55Fe uptake into cells", "setting": "[3]; hinokitiol 500 nM", "value": "restored"}, {"measurement": "transepithelial 55Fe transport", "setting": "[3]; hinokitiol 500 nM", "value": "restored"}, {"measurement": "restoration of transepithelial transport in FPN1 down-regulated monolayers", "setting": "[11]; quercetin-treated monolayers plus hinokitiol", "value": "unable to restore transepithelial transport"}, {"measurement": "hemolysis", "setting": "[4]; at concentrations increasing heme incorporation", "value": "did not cause hemolysis"}, {"measurement": "59Fe incorporation into heme", "setting": "[4]", "value": "increased ^59Fe incorporation into heme in a dose-dependent fashion; also recorded: restored incorporation of ^59Fe into heme"}, {"measurement": "differentiation without DMSO induction", "setting": "[5]; no DMSO induction", "value": "unable to promote differentiation without DMSO induction"}, {"measurement": "differentiation (staining of hemoglobinized cells with o-dianisidine)", "setting": "[5]; shDMT1 MEL cells, 72 hours", "value": "restored differentiation"}, {"measurement": "toxicity", "setting": "[5]; shDMT1 MEL cells, 72 hours", "value": "without toxicity"}, {"measurement": "cytosolic iron levels (calcein green)", "setting": "[12]", "value": "increased cytosolic and mitochondrial levels"}, {"measurement": "endosomal iron levels (oxyburst green)", "setting": "[12]", "value": "decreased endosomal iron levels"}, {"measurement": "mitochondrial iron levels (RPA)", "setting": "[12]", "value": "increased cytosolic and mitochondrial levels"}, {"measurement": "pharmacokinetic half life", "setting": "[13]; IP injection in F344 rats", "value": "reasonable pharmacokinetic half life"}, {"measurement": "toxicity in healthy rats", "setting": "[13]; rat, in vivo", "value": "relatively non-toxic"}, {"measurement": "oral bioavailability in vivo suggested by permeability assays", "setting": "[14]", "value": "good oral bioavailability"}, {"measurement": "time over which hematocrit restoration was sustained", "setting": "[6]; 0.2% in rat chow", "value": "> 2", "unit": "months"}, {"measurement": "hematocrit after one month of treatment", "setting": "[6]; 100 mg/kg/day", "value": "restored hematocrit to b/b rats to levels that are no longer considered anemic; also recorded: restores hematocrit to non-anemic values"}, {"measurement": "hematocrit after four weeks of treatment", "setting": "[6]; 0.2% of feed, ˜125 mg/kg each day", "value": "significant increases in hematocrit"}, {"measurement": "55Fe incorporation into heme", "setting": "[7]", "value": "increases in ^55Fe uptake and incorporation into heme"}, {"measurement": "55Fe uptake", "setting": "[7]", "value": "increases in ^55Fe uptake and incorporation into heme"}, {"measurement": "hemoglobinization", "setting": "[7]", "value": "restored hemoglobinization"}, {"measurement": "hemoglobinization", "setting": "[15]", "value": "did not restore hemoglobinization"}, {"measurement": "toxicity", "setting": "[16]", "value": "without observable toxicity"}, {"measurement": "release of intracellular iron", "setting": "[16]; J774 cells with 55Fe-transferrin, FPN1 down-regulated with hepcidin", "value": "released this intracellular iron back to normal levels in dose-dependent fashion"}, {"measurement": "lethality", "setting": "[17]", "value": "non-lethal"}]}
{"compound": "Cc1ncc(CO)c(C=NNC(=O)c2ccncc2)c1O", "note": "[pyridoxal isonicotinoyl hydrazone, reference compound]", "values": [{"measurement": "55Fe uptake into cells", "setting": "[3]; hinokitiol 500 nM", "value": "unable to promote uptake or transport"}, {"measurement": "transepithelial 55Fe transport", "setting": "[3]; hinokitiol 500 nM", "value": "unable to promote uptake or transport"}]}
{"compound": "O=c1c(O)c(-c2ccc(O)c(O)c2)oc2cc(O)cc(O)c12", "note": "[quercetin]", "values": [{"measurement": "transepithelial transport after FPN1 down-regulation", "setting": "[11]; [18]", "value": "decreased transepithelial transport"}, {"measurement": "uptake after FPN1 down-regulation", "setting": "[11]; [18]", "value": "without affecting uptake"}]}
{"compound": "CC(C)c1cccc([O-])c(=O)c1.CC(C)c1cccc([O-])c(=O)c1.CC(C)c1cccc([O-])c(=O)c1.[Fe+3]", "note": "[tris(hinacolato) iron (III)]", "values": [{"measurement": "partitioning of iron complex into octanol", "setting": "[9]", "value": "predominantly partitions into octanol"}, {"measurement": "solubility in hexanes / partitioning into water", "setting": "[9]", "value": "soluble in hexanes"}]}
{"compound": "hepcidin: key iron regulator, down-regulating FPN1 by promoting its degradation (DTHFPICIFCCGCCHRSKCGMCCKT; ends and bridges not checked; cysteine pairing not given here; UniProt P81172 60-84, looked up) [reference compound]", "values": [{"measurement": "iron release after FPN1 down-regulation", "setting": "[16]; J774 cells with 55Fe-transferrin, presence of hepcidin", "value": "reduced iron release"}]}
